# Data reported in ChEMBL document CHEMBL4346703, “Structure Overhaul Affords a Potent Purine PI3Kδ Inhibitor with Improved Tolerability” (J Med Chem, 2019).
# Experiments:
# [1] = Toxicity in Beagle dog assessed as decrease in RBC count at 25 mg/kg administered for 8 days; format: organism-based, Canis lupus familiaris; details: in vivo, 192 h
# [2] = Half-life in Beagle dog; format: ADME, Canis lupus familiaris; details: in vivo
# [3] = test system: Rattus norvegicus; assay: Hemodynamic activity in telemetered rat assessed as effect on arterial blood pressure at 60 mg/kg; format: ADME, organism-based; details: in vivo
# [4] = Drug recovery in rat urine after 24 hrs; format: ADME; details: read-out: Drug recovery
# [5] = test system: Cytochrome P450; assay: Inhibition of cytochrome P450 (unknown origin); format: ADME, protein assay; details: human
# [6] = Toxicity in Beagle dogs assessed as body weight loss at 25 mg/kg administered for 8 days; format: organism-based, Canis lupus familiaris; details: dog, in vivo, 192 h
# [7] = Plasma clearance in Beagle dog at 0.25 mg/kg, iv or 0.5 mg/kg, po; format: ADME, organism-based, Canis lupus familiaris
# [8] = target: cAMP and cAMP-inhibited cGMP 3',5'-cyclic phosphodiesterase 10A (Homo sapiens, UniProt Q9Y233); assay: Inhibition of PDE10 (unknown origin)
# cAMP and cAMP-inhibited cGMP 3',5'-cyclic phosphodiesterase 10A, sequence (Q9Y233 whole entry): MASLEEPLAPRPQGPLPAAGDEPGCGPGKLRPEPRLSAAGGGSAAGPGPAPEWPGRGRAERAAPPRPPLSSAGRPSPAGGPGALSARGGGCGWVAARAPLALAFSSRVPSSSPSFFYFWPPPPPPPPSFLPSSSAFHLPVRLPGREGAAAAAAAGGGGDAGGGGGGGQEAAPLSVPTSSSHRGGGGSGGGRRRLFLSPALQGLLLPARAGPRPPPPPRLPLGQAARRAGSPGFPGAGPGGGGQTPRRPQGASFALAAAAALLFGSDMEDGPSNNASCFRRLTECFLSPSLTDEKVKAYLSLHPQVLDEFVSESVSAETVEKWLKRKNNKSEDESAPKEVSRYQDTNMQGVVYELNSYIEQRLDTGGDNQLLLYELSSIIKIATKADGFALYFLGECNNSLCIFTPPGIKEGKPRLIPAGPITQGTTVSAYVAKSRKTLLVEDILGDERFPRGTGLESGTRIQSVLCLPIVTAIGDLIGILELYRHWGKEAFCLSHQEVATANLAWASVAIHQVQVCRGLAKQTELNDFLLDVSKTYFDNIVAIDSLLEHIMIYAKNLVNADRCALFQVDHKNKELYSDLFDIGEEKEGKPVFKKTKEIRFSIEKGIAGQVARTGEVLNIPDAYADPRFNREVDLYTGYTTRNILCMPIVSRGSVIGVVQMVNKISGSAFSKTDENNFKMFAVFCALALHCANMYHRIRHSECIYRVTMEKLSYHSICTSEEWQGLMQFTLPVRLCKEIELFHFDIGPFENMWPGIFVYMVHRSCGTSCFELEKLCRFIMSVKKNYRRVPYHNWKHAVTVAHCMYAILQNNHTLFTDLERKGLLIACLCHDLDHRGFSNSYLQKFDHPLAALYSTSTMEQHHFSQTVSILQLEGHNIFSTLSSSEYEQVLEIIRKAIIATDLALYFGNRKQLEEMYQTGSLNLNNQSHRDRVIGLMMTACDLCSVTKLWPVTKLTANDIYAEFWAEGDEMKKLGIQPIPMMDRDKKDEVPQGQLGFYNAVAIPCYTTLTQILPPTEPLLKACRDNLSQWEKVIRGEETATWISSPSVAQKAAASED
# [9] = Volume of distribution in Wistar Han rat; format: ADME; details: in vivo
# [10] = Protein binding in human plasma; format: ADME, cell-free; details: read-out: PPB (converted)
# [11] = fCmax in telemetered rat at 60 mg/kg; format: ADME, organism-based; details: in vivo
# [12] = target: T1, Phosphatidylinositol 4,5-bisphosphate 3-kinase catalytic subunit delta isoform (Homo sapiens, UniProt O00329); assay: Inhibition of PI3Kdelta in human whole blood assessed as reduction in anti-CD79b antibody-induced CD69 expression preincubated for 60 mins followed by anti-CD79b antibody stimulation and measured after 3 hrs by FACS analysis; format: tissue-based
# T1 sequence (O00329 whole entry): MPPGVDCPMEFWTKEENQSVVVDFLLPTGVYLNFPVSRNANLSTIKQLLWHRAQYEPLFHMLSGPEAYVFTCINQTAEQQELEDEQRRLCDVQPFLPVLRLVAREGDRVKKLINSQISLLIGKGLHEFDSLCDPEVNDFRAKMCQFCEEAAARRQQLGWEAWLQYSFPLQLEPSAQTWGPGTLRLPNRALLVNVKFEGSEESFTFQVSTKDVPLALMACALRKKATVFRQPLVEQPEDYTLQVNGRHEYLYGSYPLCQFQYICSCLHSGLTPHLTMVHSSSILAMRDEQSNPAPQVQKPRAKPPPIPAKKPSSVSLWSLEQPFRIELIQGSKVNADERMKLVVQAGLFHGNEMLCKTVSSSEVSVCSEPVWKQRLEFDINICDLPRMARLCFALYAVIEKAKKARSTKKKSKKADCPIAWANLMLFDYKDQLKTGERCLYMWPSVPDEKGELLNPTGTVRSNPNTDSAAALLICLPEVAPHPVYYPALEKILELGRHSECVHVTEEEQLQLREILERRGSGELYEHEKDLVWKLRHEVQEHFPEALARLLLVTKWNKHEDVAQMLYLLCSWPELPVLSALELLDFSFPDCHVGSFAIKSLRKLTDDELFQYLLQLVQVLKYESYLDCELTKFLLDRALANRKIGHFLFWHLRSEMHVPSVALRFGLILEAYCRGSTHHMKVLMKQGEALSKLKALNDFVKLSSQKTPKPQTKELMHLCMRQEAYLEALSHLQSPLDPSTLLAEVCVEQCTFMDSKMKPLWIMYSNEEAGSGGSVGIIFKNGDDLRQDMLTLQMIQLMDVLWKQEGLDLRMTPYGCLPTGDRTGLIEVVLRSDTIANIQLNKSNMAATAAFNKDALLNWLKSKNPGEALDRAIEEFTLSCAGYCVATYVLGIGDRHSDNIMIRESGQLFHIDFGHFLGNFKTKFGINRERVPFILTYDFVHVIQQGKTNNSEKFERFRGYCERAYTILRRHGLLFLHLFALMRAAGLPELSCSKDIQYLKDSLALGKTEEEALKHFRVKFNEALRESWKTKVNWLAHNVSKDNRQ
# [13] = Drug recovery in rat bile after 24 hrs; format: ADME; details: read-out: Drug recovery
# [14] = Oral bioavailability in Beagle dog; format: ADME, organism-based, Canis lupus familiaris; details: in vivo
# [15] = target: Phosphodiesterase 6; assay: Inhibition of PDE6 (unknown origin); format: protein assay, Homo sapiens
# [16] = Protein binding in Beagle dog plasma; format: ADME, cell-free, Canis lupus familiaris; details: read-out: PPB (converted)
# [17] = target: Phosphodiesterase 3 (Homo sapiens, UniProt Q14432+Q13370); assay: Inhibition of PDE3 (unknown origin); format: protein assay
# [18] = test system: Rattus norvegicus; assay: Hemodynamic activity in telemetered rat assessed as effect on heart rate at 60 mg/kg; format: ADME, organism-based; details: in vivo
# [19] = fCmax in Beagle dog at 25 mg/kg administered for 8 days; format: ADME, organism-based, Canis lupus familiaris; details: in vivo, 192 h
# [20] = target: High affinity cAMP-specific and IBMX-insensitive 3',5'-cyclic phosphodiesterase 8A (Homo sapiens, UniProt O60658); assay: Inhibition of PDE8 (unknown origin)
# High affinity cAMP-specific and IBMX-insensitive 3',5'-cyclic phosphodiesterase 8A, sequence (O60658 whole entry): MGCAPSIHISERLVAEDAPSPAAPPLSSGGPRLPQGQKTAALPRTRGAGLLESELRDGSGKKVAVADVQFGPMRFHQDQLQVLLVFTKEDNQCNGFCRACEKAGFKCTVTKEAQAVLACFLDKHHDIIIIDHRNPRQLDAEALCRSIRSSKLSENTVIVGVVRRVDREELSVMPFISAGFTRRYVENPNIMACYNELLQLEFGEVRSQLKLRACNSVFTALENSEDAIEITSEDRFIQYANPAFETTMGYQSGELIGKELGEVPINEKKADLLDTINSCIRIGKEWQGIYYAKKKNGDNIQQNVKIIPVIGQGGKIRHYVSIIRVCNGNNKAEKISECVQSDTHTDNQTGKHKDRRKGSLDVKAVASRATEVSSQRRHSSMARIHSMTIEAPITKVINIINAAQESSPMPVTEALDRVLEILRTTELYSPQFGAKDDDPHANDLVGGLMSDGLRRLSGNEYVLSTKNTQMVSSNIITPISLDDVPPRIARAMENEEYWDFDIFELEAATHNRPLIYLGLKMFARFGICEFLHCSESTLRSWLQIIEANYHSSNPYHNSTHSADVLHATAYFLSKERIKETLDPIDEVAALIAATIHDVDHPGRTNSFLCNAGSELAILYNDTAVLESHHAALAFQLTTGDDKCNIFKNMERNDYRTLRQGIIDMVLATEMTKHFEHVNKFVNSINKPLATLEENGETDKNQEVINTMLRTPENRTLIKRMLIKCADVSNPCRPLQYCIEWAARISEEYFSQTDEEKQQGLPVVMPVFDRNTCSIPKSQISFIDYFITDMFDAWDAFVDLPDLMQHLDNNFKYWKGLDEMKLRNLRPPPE
# [21] = Toxicity in Beagle dogs assessed as vascular injury at 25 mg/kg administered for 8 days; format: organism-based, Canis lupus familiaris; details: dog, in vivo, 192 h
# [22] = species on record: Homo sapiens; assay: Selectivity ratio of IC50 for N-terminal His6-tagged recombinant full length human p110beta/untagged recombinant full length human p85alpha expressed in baculovirus infected Sf21 insect cells to N-terminal His6-tagged recombinant full length human p110delta/untagged recombinant full length human p85alpha expressed in baculovirus infected Sf21 insect cells
# [23] = Volume of distribution in Beagle dog; format: ADME, Canis lupus familiaris; details: in vivo
# [24] = target: cGMP-dependent 3',5'-cyclic phosphodiesterase (Homo sapiens, UniProt O00408); assay: Inhibition of PDE2 (unknown origin)
# cGMP-dependent 3',5'-cyclic phosphodiesterase, sequence (O00408 whole entry): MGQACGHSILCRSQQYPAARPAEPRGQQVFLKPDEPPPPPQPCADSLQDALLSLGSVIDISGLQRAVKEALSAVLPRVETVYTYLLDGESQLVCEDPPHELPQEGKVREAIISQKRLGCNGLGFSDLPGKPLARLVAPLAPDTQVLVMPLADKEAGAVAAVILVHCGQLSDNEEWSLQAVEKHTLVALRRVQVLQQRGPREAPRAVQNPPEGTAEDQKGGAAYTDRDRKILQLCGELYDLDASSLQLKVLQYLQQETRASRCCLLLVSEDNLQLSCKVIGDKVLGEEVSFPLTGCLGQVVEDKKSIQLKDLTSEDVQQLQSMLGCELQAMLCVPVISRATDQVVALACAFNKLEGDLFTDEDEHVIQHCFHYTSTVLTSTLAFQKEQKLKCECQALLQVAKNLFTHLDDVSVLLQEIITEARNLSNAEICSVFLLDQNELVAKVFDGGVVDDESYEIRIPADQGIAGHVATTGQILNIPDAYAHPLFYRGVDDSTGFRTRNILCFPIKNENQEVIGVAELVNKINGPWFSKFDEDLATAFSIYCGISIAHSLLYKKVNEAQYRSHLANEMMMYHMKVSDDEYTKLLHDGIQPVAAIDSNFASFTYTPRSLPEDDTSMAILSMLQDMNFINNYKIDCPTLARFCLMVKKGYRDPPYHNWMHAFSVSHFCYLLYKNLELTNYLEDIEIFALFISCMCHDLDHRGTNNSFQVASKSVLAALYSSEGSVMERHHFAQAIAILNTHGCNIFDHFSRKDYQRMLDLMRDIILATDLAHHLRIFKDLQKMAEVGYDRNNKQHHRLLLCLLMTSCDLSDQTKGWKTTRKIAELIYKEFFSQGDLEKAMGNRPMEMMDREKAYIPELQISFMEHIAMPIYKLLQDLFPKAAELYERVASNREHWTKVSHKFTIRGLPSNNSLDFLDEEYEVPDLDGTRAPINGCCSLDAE
# [25] = test system: Canis familiaris; assay: Hemodynamic activity in Beagle dog at 25 mg/kg administered for 8 days; format: ADME, organism-based, Canis lupus familiaris; details: in vivo, 192 h
# [26] = target: Phosphodiesterase 4 (Homo sapiens, UniProt P27815+Q08499+Q07343+Q08493); assay: Inhibition of PDE4 (unknown origin); format: protein assay
# [27] = target: PI3-kinase p110-delta/p85-alpha (Homo sapiens, UniProt O00329); assay: Inhibition of N-terminal His6-tagged recombinant full length human p110delta/untagged recombinant full length human p85alpha expressed in baculovirus infected Sf21 insect cells using PIP2 as substrate preincubated for 15 mins followed by substrate addition and measured after 1 hr by HTRF assay
# PI3-kinase p110-delta/p85-alpha, sequence (P27986 whole entry, one chain of several): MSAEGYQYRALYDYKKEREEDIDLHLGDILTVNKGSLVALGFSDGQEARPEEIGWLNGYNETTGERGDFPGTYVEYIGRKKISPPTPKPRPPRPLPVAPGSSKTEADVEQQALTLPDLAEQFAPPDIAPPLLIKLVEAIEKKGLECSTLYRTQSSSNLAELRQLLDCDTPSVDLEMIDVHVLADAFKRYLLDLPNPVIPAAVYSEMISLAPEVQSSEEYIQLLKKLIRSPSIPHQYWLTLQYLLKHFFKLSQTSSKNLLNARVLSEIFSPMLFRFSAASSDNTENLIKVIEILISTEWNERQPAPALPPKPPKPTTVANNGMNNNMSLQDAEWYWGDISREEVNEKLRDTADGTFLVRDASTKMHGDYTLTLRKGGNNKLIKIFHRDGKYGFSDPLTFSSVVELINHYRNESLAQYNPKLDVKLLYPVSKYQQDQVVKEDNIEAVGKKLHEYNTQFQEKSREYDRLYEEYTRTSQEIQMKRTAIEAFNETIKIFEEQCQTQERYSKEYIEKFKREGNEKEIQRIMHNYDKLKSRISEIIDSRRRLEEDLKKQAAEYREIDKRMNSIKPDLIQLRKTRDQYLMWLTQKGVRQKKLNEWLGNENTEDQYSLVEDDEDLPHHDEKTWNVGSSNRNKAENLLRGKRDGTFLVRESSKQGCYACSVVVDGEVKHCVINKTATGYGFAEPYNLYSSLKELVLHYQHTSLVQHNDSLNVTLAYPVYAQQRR
# [28] = Unbound volume of distribution in Beagle dog; format: ADME, Canis lupus familiaris; details: in vivo
# [29] = Oral bioavailability in Wistar Han rat; format: ADME, organism-based; details: in vivo
# [30] = Plasma clearance in Wistar Han rat at 0.5 mg/kg, iv or 1 mg/kg, po; format: ADME, organism-based
# [31] = Unbound volume of distribution in Wistar Han rat; format: ADME; details: in vivo
# [32] = species on record: Homo sapiens; assay: Selectivity ratio of IC50 for N-terminal His6-tagged recombinant full length human PI3Kgamma expressed in baculovirus infected Sf21 cells to IC50 for N-terminal His6-tagged recombinant full length human p110delta/untagged recombinant full length human p85alpha expressed in baculovirus infected Sf21 insect cells
# [33] = target: Phosphodiesterase 7 (Homo sapiens, UniProt Q13946+Q9NP56); assay: Inhibition of PDE7 (unknown origin); format: protein assay
# [34] = fCmax in rat at 750 mg/kg administered for 4 days; format: ADME, organism-based; details: in vivo, 96 h
# [35] = Cardiovascular toxicity in rat assessed as vascular injury at 750 mg/kg for 4 days; format: organism-based; details: in vivo, 96 h
# [36] = target: T1, Phosphatidylinositol 4,5-bisphosphate 3-kinase catalytic subunit delta isoform; assay: Inhibition of PI3Kdelta in human whole blood assessed as reduction in antihuman IgE antibody-stimulated CD63 expression preincubated for 30 mins followed by antihuman IgE antibody stimulation and measured after 20 mins by FACS analysis; format: tissue-based
smiles,measurement,setting,value
CCn1ncc(-c2nc3c(O[C@H]4CCN(C(=O)C5CCOCC5)C4)ncnc3n2C)c1C,Activity,[1],Non-Toxic
same,half-life,[2],1.5 h
same,Activity,[3],Non-Toxic
same,dose excreted at 24 h,[4],17%
same,inhibition (INH),[5],Not Active
same,Activity,[6],Non-Toxic
same,clearance,[7],5.8 mL/min/kg
same,IC50,[8],> 50 µM
same,Vd,[9],1.2 L/kg
same,fraction unbound,[10],0.83
same,fCmax,[11],44 µM
same,IC50,[12],0.36 µM
same,dose excreted at 24 h,[13],2%
same,bioavailability,[14],100%
same,IC50,[15],> 50 µM
same,fraction unbound,[16],0.74
same,IC50,[17],> 50 µM
same,Activity,[18],Non-Toxic
same,fCmax,[19],46 µM
same,IC50,[20],> 50 µM
same,Activity,[21],Non-Toxic
same,Ratio IC50,[22],1400
same,Vd,[23],0.9 L/kg
same,IC50,[24],> 50 µM
same,Activity,[25],Non-Toxic
same,IC50,[26],> 50 µM
same,IC50,[27],0.0039 µM
same,Vdu,[28],3 L/kg
same,bioavailability,[29],55%
same,clearance,[30],41 mL/min/kg
same,Vdu,[31],2 L/kg
same,Ratio IC50,[32],970
same,IC50,[33],> 50 µM
same,fCmax,[34],200 µM
same,Activity,[35],Non-Toxic
same,IC50,[36],0.415 µM
